Laboratory results as given in ChEMBL document CHEMBL1156873 (Bioorg Med Chem Lett, 2010).
pIC50: −log10 of the molar value. The source made the active and inactive calls. The rule behind the calls is not given here.

What was measured:
[1] = Half life in human microsomes; format: ADME, Microsome
[2] = biological target: Serine/threonine-protein kinase mTOR (Homo sapiens, UniProt P42345); assay: Inhibition of mTOR
LNCaP = assay: Cytotoxicity against human LNCAP cells; format: functional, cell-based
[3] = Half life in nude mouse microsomes; format: ADME, Microsome
Mus musculus [4] = assay: Toxicity in nude mouse assessed as body weight change at 10 mg/kg, po daily once for 5 days; format: organism-based; set-up: dose 10 mg/kg, route oral; details: in vivo, 120 h
Mus musculus [5] = assay: Inhibition of mTOR in nude mouse bearing human MDA-MB-361 cells assessed as reduction of phosphorylated S6 (S240/244) level at 25 mg/kg, iv after 8 hrs; format: functional, organism-based; set-up: dose 25 mg/kg
Mus musculus [6] = assay: Inhibition of mTOR in nude mouse bearing human MDA-MB-361 cells assessed as reduction of phosphorylated S6K (T389) level at 25 mg/kg, iv after 8 hrs; format: functional, organism-based; set-up: dose 25 mg/kg
MDA-MB-361 [7] = assay: Antitumor activity against human MDA-MB-361 cells xenografted in nude mouse assessed as inhibition of tumor growth at 10 mg/kg, po daily once for 5 days measured up to 17 days; format: functional, organism-based; set-up: dose 10 mg/kg
MDA-MB-361 [8] = assay: Antitumor activity against human MDA-MB-361 cells xenografted in nude mouse assessed as inhibition of tumor growth at 20 mg/kg, po daily once for 5 days measured up to 17 days; format: functional, organism-based; set-up: dose 20 mg/kg
Mus musculus [9] = assay: Toxicity in nude mouse assessed as body weight change at 20 mg/kg, po daily once for 5 days; format: organism-based; set-up: dose 20 mg/kg, route oral; details: in vivo, 120 h
Mus musculus [10] = assay: Inhibition of mTOR in nude mouse bearing human MDA-MB-361 cells assessed as reduction of phosphorylated AKT (S473) level at 25 mg/kg, iv after 8 hrs; format: functional, organism-based; set-up: dose 25 mg/kg

| Compound | half-life [1] | pIC50 [2] | pIC50 (LNCaP) | half-life [3] | also measured |
| --- | --- | --- | --- | --- | --- |
| CNC(=O)Nc1ccc(-c2nc(N3CC4CCC(C3)O4)c3cnn([C@H]4CC[C@H](OC)CC4)c3n2)cc1 | 15 min | 9.42 | 8.70 | > 30 min |  |
| O=C(Nc1ccc(-c2nc(N3CC4CCC(C3)O4)c3cnn(C4CCC5(CC4)OCCO5)c3n2)cc1)NC1CC1 | 9 min |  | 8.70 | 25 min |  |
| CNC(=O)Nc1ccc(-c2nc(N3CC4CCC(C3)O4)c3cnn(C4CCC(=O)CC4)c3n2)cc1 | 10 min |  | 7.49 | 20 min |  |
| CNC(=O)Nc1ccc(-c2nc(N3CC4CCC(C3)O4)c3cnn([C@H]4CC[C@@H](OC)CC4)c3n2)cc1 |  |  | 9.00 | 17 min |  |
| O=C(Nc1ccc(-c2nc(N3CC4CCC(C3)O4)c3cnn(C4CCC5(CC4)OCCO5)c3n2)cc1)Nc1cccnc1 | 13 min | 9.92 | 9.00 | > 30 min |  |
| CNC(=O)Nc1ccc(-c2nc(N3CC4CCC(C3)O4)c3cnn(C4CCC5(CC4)OCCCO5)c3n2)cc1 | > 30 min |  | 8.10 | > 30 min |  |
| CNC(=O)Nc1ccc(-c2nc(N3CC4CCC(C3)O4)c3cnn(CCN(C)C)c3n2)cc1 |  |  | 6.40 | 5 min |  |
| CNC(=O)Nc1ccc(-c2nc(N3CC4CCC(C3)O4)c3cnn(C)c3n2)cc1 |  | 8.87 | 6.77 | > 30 min |  |
| CCNC(=O)Nc1ccc(-c2nc(N3CC4CCC(C3)O4)c3cnn(C4CCC5(CC4)OCCO5)c3n2)cc1 | 10 min |  | 9.00 | 27 min |  |
| CNC(=O)Nc1ccc(-c2nc(N3CC4CCC(C3)O4)c3cnn(C(C)C)c3n2)cc1 | 12 min | 9.92 | 8.30 | > 30 min |  |
| CNC(=O)Nc1ccc(-c2nc(N3CC4CCC(C3)O4)c3cnn(CCO)c3n2)cc1 |  |  | 6.19 |  |  |
| O=C(Nc1ccncc1)Nc1ccc(-c2nc(N3CC4CCC(C3)O4)c3cnn(C4CCC5(CC4)OCCO5)c3n2)cc1 | 13 min | 9.92 | 9.00 | > 30 min |  |
| CNC(=O)Nc1ccc(-c2nc(N3CC4CCC(C3)O4)c3cnn(C4CCN(C(=O)OC(C)C)CC4)c3n2)cc1 |  | 9.72 | 8.22 | 21 min |  |
| O=C(NCCF)Nc1ccc(-c2nc(N3CC4CCC(C3)O4)c3cnn(C4CCC5(CC4)OCCO5)c3n2)cc1 | 16 min | 9.66 | 9.00 | > 30 min |  |
| CNC(=O)Nc1ccc(-c2nc(N3CC4CCC(C3)O4)c3cnn(C4CCN(C(=O)OC)CC4)c3n2)cc1 |  |  | 7.59 | > 30 min |  |
| CCn1ncc2c(N3CC4CCC(C3)O4)nc(-c3ccc(NC(=O)NC)cc3)nc21 |  | 9.13 | 7.15 | > 30 min |  |
| CNC(=O)Nc1ccc(-c2nc(N3CC4CCC(C3)O4)c3cnn(CC(F)(F)F)c3n2)cc1 | 5 min |  | 7.42 | > 30 min |  |
| CNC(=O)Nc1ccc(-c2nc(N3CC4CCC(C3)O4)c3cnn([C@H]4CC[C@@H](O)CC4)c3n2)cc1 | > 30 min | 9.52 | 7.70 | > 30 min |  |
| O=C(Nc1ccccc1)Nc1ccc(-c2nc(N3CC4CCC(C3)O4)c3cnn(C4CCC5(CC4)OCCO5)c3n2)cc1 | 13 min | 9.80 | 8.40 | > 30 min |  |
| CNC(=O)Nc1ccc(-c2nc(N3CC4CCC(C3)O4)c3cnn(C4CCC5(CC4)OCCO5)c3n2)cc1 | 26 min |  | 8.70 | > 30 min | Activity (Mus musculus [4]): Non-toxic; Activity (Mus musculus [5]): Active; Activity (Mus musculus [6]): Active; Activity (MDA-MB-361 [7]): Active; Activity (MDA-MB-361 [8]): Active; Activity (Mus musculus [9]): Non-toxic; Activity (Mus musculus [10]): Active |
| CNC(=O)Nc1ccc(-c2nc(N3CC4CCC(C3)O4)c3cnn([C@H]4CC[C@H](O)CC4)c3n2)cc1 | > 30 min | 9.62 | 7.70 | > 30 min |  |
| CNC(=O)Nc1ccc(-c2nc(N3CC4CCC(C3)O4)c3cnn(C4CCN(C(=O)OC(C)(C)C)CC4)c3n2)cc1 |  | 9.59 | 7.57 | 11 min |  |
| CNC(=O)Nc1ccc(-c2nc(N3CC4CCC(C3)O4)c3cnn(C4CCC(OC)(OC)CC4)c3n2)cc1 | 30 min |  | 8.70 | 15 min |  |
